Experimental findings from patent publication US12692246B2, “Solid form of a bradykinin B2-receptor antagonist” (PHARVARIS GMBH, priority 2021, dated 2026) are described below.

Holding throughout (assay type): physicochemical
Data set [1] is described as follows: Gravimetric Vapour Sorption (GVS). As to conditions: 25° C. How it is done: Sorption isotherms were obtained using a Hiden Isochema moisture sorption analyser (model IGAsorp), controlled by IGAsorp Systems Software V6.50.48. The sample was maintained at a constant temperature (25° C.) by the instrument controls. The humidity was controlled by mixing streams of dry and wet nitrogen, with a total flow of 250 ml.min^−1. The instrument was verified for relative humidity content by measuring three calibrated Rotronic salt solutions (10-50-88%). The weight change of the sample was monitored as a function of humidity by a microbalance (accuracy+/−0.005 mg). A defined amount of sample was placed in a tared mesh stainless steel basket under ambient conditions. A full experimental cycle typically consisted of three scans (sorption, desorption and sorption) at a constant temperature (25° C.) and 10% RH intervals over a 0-90% range (60 minutes for each humidity level).

Data set [2] can be described thus: Slow evaporative crystallisation trials (solubility observed in solvents). How it is done: Into crystallisation tubes (5 ml vol) was charged 20 mg of amorphous (S)—N-(1-deutero-1-(3-chloro-5-fluoro-2-((2-methyl-4-(1-methyl-1H-1,2,4-triazol-5-yl)quinolin-8-yloxy)methyl)phenyl)ethyl)-2-(difluoromethoxy)acetamide. A total of 26 solvents or solvent mixtures were charged to the tubes and the solids agitated over a period of 48 hours at RT and cooled to 0° C.
Slow evaporative crystallisation trials were continued by transferring samples to smaller tapered tubes without agitation and needle bleeds fitted. Slow evaporative crystallisation was attempted with scratching at various points to help induce crystallisation.
Following two weeks, liquors remained in most cases with no evidence of crystallisation. At this point heteronuclear seeding was attempted with a very similar crystalline API source. This had no impact upon the results. The majority of test cases returned clear glasses.

Data set [3] is described as follows: Mixed solvent cooling crystallization trials (solubility in six solvents). As to conditions: 200 mg amorphous material; MeOH, MeCN, MEK, THF, EtOAc, TBME; solutions at 0.5 vol., 25° C., ca. 66 hours equilibration. How it is done:
Amorphous (S)—N-(1-deutero-1-(3-chloro-5-fluoro-2-((2-methyl-4-(1-methyl-1H-1,2,4-triazol-5-yl)quinolin-8-yloxy)methyl)phenyl)ethyl)-2-(difluoromethoxy)acetamide, 6×200 mg, was weighed into crystallisation tubes and charged with solvents (MeOH, MeCN, MEK, THE, EtOAc and TBME) in 0.05 ml (0.25 vol.) aliquots at 25° C. […] Additional solvent (made up to 0.5 vol.) yielded thick yellow solutions. The solutions were equilibrated at 25° C. for ca. 66 hours though this had no impact on the yellow solutions.
Additional solvent was charged to each API solution up to 1 ml (5 vol.) and the solutions were heated to 40° C. and clarified. Heptane was charged in 50 μL aliquots to each solution before cooling to 25° C. over 1 hour. The volume charged and observations at 40 and 25° C. are detailed in Table 3.

Regarding `[2H][C@@](C)(NC(=O)COC(F)F)c1cc(F)cc(Cl)c1COc1cccc2c(-c3ncnn3C)cc(C)nc12` [Form A, (S)—N-(1-deutero-1-(3-chloro-5-fluoro-2-((2-methyl-4-(1-methyl-1H-1,2,4-triazol-5-yl)quinolin-8-yloxy)methyl)phenyl)ethyl)-2-(difluoromethoxy)acetamide monohydrate], the “GVS overall weight change” value in data set [1] (between 0 and 90% RH) was “ca. 1.9 wt %”. In addition, in data set [1] (between 10 and 80% RH), the GVS hysteresis was 0.2-0.4 wt %.
Regarding `[2H][C@@](C)(NC(=O)COC(F)F)c1cc(F)cc(Cl)c1COc1cccc2c(-c3ncnn3C)cc(C)nc12` [(S)—N-(1-deutero-1-(3-chloro-5-fluoro-2-((2-methyl-4-(1-methyl-1H-1,2,4-triazol-5-yl)quinolin-8-yloxy)methyl)phenyl)ethyl)-2-(difluoromethoxy)acetamide], the solubility in solvents result in data set [2] (20 mg amorphous material, 26 solvents or solvent mixtures, agitated 48 hours at RT and cooled to 0° C., in the majority of solvents) is “extreme solubility”. Moreover, the “solubility in solvents (continued trials)” value in data set [2] (continued slow evaporation without agitation, scratching, heteronuclear seeding, 3 weeks) was “extreme solubility”. Besides, in data set [3], the “solubility in the 6 solvents investigated” value is “high solubility”.
